Assay results: patent US8354414B2, “Substituted bicyclic pyrimidines” (Cephalon, Inc, priority 2006, dated 2013)
Where a name gives a salt, the structure may show the parent alone. Read-outs that look alike come from different tables or passages of the source.

Legend:
[1] = target: T1, CDK5/GST-p25 (Homo sapiens, UniProt Q00535); test: Inhibition of CDK5/GST-p25 kinase activity (ELISA with time-resolved fluorescence readout); format: biochemical
T1 construct: The final construct, encoding for full-length human CDK5; made in house; host or cells: Sf21 insect cells (baculovirus co-infection)
T1 sequence (Q00535 whole entry): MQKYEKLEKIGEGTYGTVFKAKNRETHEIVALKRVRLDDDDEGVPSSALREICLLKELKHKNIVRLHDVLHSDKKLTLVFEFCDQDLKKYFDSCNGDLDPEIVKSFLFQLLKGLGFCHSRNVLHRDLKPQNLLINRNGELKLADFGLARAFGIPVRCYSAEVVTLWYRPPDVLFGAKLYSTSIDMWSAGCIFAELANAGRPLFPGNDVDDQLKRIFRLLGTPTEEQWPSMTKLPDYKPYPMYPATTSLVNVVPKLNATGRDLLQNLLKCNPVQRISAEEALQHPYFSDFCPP
T1 sequence (Q15078 108-307 partner limits assumed): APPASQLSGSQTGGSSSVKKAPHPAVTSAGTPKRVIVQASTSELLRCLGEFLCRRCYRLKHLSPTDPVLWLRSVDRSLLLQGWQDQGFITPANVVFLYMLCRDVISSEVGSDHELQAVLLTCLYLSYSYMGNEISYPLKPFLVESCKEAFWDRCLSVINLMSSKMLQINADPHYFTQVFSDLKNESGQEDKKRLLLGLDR
Experimental: Two recombinant baculoviral constructs were created, one encoding for human CDK5 and the other encoding for human p25 with an amino-terminal glutathione-S-transferase (GST) tag. PCR amplification of full-length CDK5 was performed utilizing human brain cDNA as a template and Pfu Turbo polymerase (Strategene). The PCR product from this reaction was subcloned into the baculoviral expression vector pFASTBAC1 (Gibco/BRL). The final construct, encoding for full-length human CDK5 (base pairs 25-903 of GenBank Accession #NM_004935), is 292 amino acids long with a predicted MW of 33.3 kDa.
For p25, the active truncated form of p35, amino acids 108-307 were PCR-amplified from human fetal brain cDNA (Clontech QUICK-Clone cDNA) using the Advantage 2 PCR system (Clontech). The PCR product was subcloned into the baculoviral transfer vector pFBGSTP (an engineered derivative of the baculoviral transfer vector pFASTBAC1). The final baculoviral construct encodes for base pairs 419-1021 of GenBank Accession #NM_003885, with an amino-terminal GST tag. The expressed GST-p25 is 444 amino acids long with a predicted MW of 50.3 kDa.
The CDK5/GST-p25 complex was generated by coexpression. Sf21 cells were cultured in TNM-FHS media at a density of 1.5×10^6 cells/mL and infected with each recombinant virus at MOI values of 5 (for CDK5) and 10 (for GST-p25). The cells were harvested 40 h after infection. For purification, the 100,000×g supernatant solution was used. Expression was confirmed by running samples on SDS-PAGE, followed by immunoblot analysis utilizing antibodies against CDK5 (anti-CDK5 (268-283); Calbiochem #219449) and p35 (Santa Cruz #sc820). The CDK5/GST-p25 complex was purified by glutathione affinity chromatography.
Compounds were tested for their ability to inhibit the kinase activity of recombinant baculoviral CDK5/GST-p25 using an enzyme-linked immunosorbent assay (ELISA) with time-resolved fluorescence (TRF) readout. Briefly, each 384-well FluoroNunc Maxisorp plate (Cat # 460372) plate was coated with 50 μl/well of 50 μg/ml substrate solution (recombinant GST-Rb(773-928)) in Tris-buffered saline (TBS). The CDK5/GST-p25 assay mixture (total volume=50 μl/well) consisting of 20 mM HEPES (pH 7.2), 10 μM ATP, 10 mM MgCl2, 5 mM EGTA, 25 mM β-glycerophosphate, 0.05% BSA, 2.5% DMSO, and various concentrations of test compound were then added to the assay plate. Enzyme (2 ng/ml CDK5/GST-p25) was added and the reaction was allowed to proceed at 37° C. for 20 minutes. Detection of the phosphorylated product was performed by adding 50 μl/well of phospho-Rb (Ser-780) antibody (Cell Signaling # 9307) diluted 1:10,000 in antibody dilution buffer (0.1% BSA in TBST). After 1-hour incubation at 37° C., 50 μl/well of Eu-Nl labelled anti-rabbit antibody (Wallac # AD0105; 1:50,000 in antibody dilution buffer) was added. Incubation at 37° C. then proceeded for 1 hour, followed by addition of 50 μl enhancement solution (Wallac #1244-105). The plate was gently agitated and after a few minutes, the fluorescence of the resulting solution was measured using a Multilabel Reader (Victor2 Model # 1420-018 or Envision Model # 2100). Inhibition data were analyzed using ActivityBase and IC50 curves were generated using XLFit 3.0.5.

[2] = target: T2, His6-GSK-3β (Homo sapiens, UniProt P49841); test: Inhibition of His6-GSK-3β kinase activity (ELISA-based format, time-resolved fluorescence readout); format: biochemical; conditions: read-out: GSK3β IC50
T2 construct: made in house; host or cells: Sf21 insect cells (baculovirus)
T2 sequence (P49841 2-419): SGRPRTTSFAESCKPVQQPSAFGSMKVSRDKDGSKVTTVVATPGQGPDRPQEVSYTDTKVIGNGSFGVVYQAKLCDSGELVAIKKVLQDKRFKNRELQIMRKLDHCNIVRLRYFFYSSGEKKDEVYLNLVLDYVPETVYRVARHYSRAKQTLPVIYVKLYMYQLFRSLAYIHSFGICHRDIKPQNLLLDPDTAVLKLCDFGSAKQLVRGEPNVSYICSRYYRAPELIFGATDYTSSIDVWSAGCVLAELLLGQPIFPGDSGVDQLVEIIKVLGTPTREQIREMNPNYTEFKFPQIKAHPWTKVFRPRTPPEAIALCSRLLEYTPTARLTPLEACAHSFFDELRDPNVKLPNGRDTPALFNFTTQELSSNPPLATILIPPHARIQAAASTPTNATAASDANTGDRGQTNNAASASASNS
Source text: Full-length GSK-3β was amplified from a sequence-verified I.M.A.G.E. EST acquired from Research Genetics (Invitrogen, Clone ID# CSODB003YJ02). The final sequence-verified cDNA contained the coding region for a NH2-terminal tag, which encoded for 6 histidines and then eight vector-encoded amino acids prior to the start of GSK3β, which contained by # 43-1342 of Genbank Accession # NM_002093, encoding amino acids #2-419. The predicted molecular weight of the tagged, 435 amino acid, full-length protein is 48.5 kDa. The major structural element of this protein is the kinase domain, which is from amino acids #56-340. Recombinant baculoviral DNA was prepared by transposition in E. coli (BAC-TO-BAC system: Invitrogen) and the virus generated and amplified in Sf21 insect cells. A suspension culture of Sf21 cells was infected at an MOI of 0.7 and cell density of 1.5×10^6 cells/mL in Excell 420 serum-free media (JRH BioScience) and harvested 65 h after infection. The 100,000×g supernatant solution was used for purification. Expression was confirmed by running samples on SDS-PAGE, followed by immunoblot analysis utilizing both a Penta-HIS antibody (Qiagen #34660) and a GSK-3α/GSK-3β antibody (Calbiochem #368662, data not shown). The His6-tagged protein was purified to in one step by Ni-NTA affinity chromatography.
Inhibitory effects of compounds on baculoviral GSK-3β kinase activity were evaluated using an ELISA-based format in a 384-well FluoroNunc Maxisorp plate (Cat # 460372) with a time-resolved fluorescence readout. Briefly, each plate was coated with 50 μl/well of 20 μg/ml substrate solution (recombinant GST-Rb) in Tris-buffered saline (TBS). The GSK-3β assay mixture (total volume=50 μl/well) consisting of 50 mM HEPES (pH 7.2), 20 μM ATP, 10 mM MgCl2, 5 mM EGTA, 25 mM β-glycerophosphate, 0.05% BSA, 2.5% DMSO, and various concentrations of test compound were then added to the assay plate. Enzyme (200 ng/ml His6-GSK-3β) was then added and the reaction was allowed to proceed at 37° C. for 30 minutes. Detection of the phosphorylated product was performed by adding 50 μl/well of phospho-Rb (Ser-780) antibody (Cell Signaling # 9307) diluted 1:10,000 in antibody dilution buffer (0.1% BSA in TBST). After 1-hour incubation at 37° C., 50 μl/well of Eu-N1 labelled anti-rabbit antibody (Wallac # AD0105; 1:50,000 in antibody dilution buffer) was added. Incubation at 37° C. then proceeded for 1 hour, followed by addition of 50 μl enhancement solution (Wallac #1244-105). The plate was gently agitated and after a few minutes, the fluorescence of the resulting solution was measured using a Multilabel Reader (Victor2 Model # 1420-018 or Envision Model 2100). Inhibition data were analyzed using ActivityBase and IC50 curves were generated using XLFit 3.0.5.

Compound	IC50 ([1]; class symbols)	IC50 ([2]; class symbols)	IC50 ([1]; numeric bounds)	IC50 ([2]; numeric bounds)
CCOCCNc1nc2c(c(C3C(=O)Nc4ccc(Cl)cc43)n1)CCC2 (stereo not shown) [Example 325, 5-Chloro-3-[2-(2-ethoxy-ethylamino)-6,7-dihydro-5H-cyclopentapyrimidin-4-yl]-1,3-dihydro-indol-2-one]	> 10 µM	> 10 µM	–	–
Cn1cc2c(C3C(=O)Nc4ccc(Br)cc43)nc(NCc3ccncc3)nc2n1 (stereo not shown) [Example 302, 5-Bromo-3-{2-methyl-6-[(pyridin-4-ylmethyl)-amino]-2H-pyrazolo[3,4-d]pyrimidin-4-yl}-1,3-dihydro-indol-2-one]	< 0.3 µM	< 0.3 µM	–	–
O=C1Nc2ccc(F)cc2C1c1nc(NCc2cccnc2)nc2c1CCC2 (stereo not shown) [Example 321, 5-Fluoro-3-{2-[(pyridin-3-ylmethyl)-amino]-6,7-dihydro-5H-cyclopentapyrimidin-4-yl}-1,3-dihydro-indol-2-one]	–	–	> 3 µM	> 3 µM
N#Cc1ccc2c(c1)C(c1nc(NCCc3ccccn3)nc3nn(C4CCCC4)cc13)C(=O)N2 (stereo not shown) [Example 125, 3-[2-cyclopentyl-6-(2-pyridin-2-yl-ethylamino)-2H-pyrazolo [3,4-d]pyrimidin-4-yl]-2-oxo-2,3-dihydro-1H-indole-5-carbonitrile]	> 10 µM	< 0.3 µM	–	–
CCCn1cc2c(C3C(=O)Nc4ccc(C)cc43)nc(NCCCOC)nc2n1 (stereo not shown) [Example 310, 3-[6-(3-Methoxy-propylamino)-2-propyl-2H-pyrazolo[3,4-d]pryrimidin-4-yl]-5-methyl-1,3-dihydro-indol-2-one]	0.3 to 3 µM	0.3 to 3 µM	–	–
O=C1Nc2ccc(Cl)cc2C1c1nc(NCc2ccncc2)nc2c1CCC2 (stereo not shown) [Example 326, 5-Chloro-3-{2-[(pyridin-4-ylmethyl)-amino]-6,7-dihydro-5H-cyclopentapyrimidin-4-yl}-1,3-dihydro-indol-2-one]	> 10 µM	0.3 to 3 µM	–	–
CN1CCN(c2nc(C3C(=O)Nc4ccc(C#N)cc43)c3cn(C4CCCC4)nc3n2)CC1 (stereo not shown) [Example 117, 3-(2-cyclopentyl-6-(4-methyl-piperazin-1-yl)-2H-pyrazolo[3,4-d]pyrimidin-4-yl)-2-oxo-2,3-dihydro-1H-indole-5-carbonitrile]	3 to 10 µM	< 0.3 µM	–	–
CCCOCCNc1nc2c(c(C3C(=O)Nc4ccc(Br)cc43)n1)CCC2 (stereo not shown) [Example 333, 5-Bromo-3-[2-(2-propoxy-ethylamino)-6,7-dihydro-5H-cyclopentapyrimidin-4-yl]-1,3-dihydro-indol-2-one]	> 10 µM	> 10 µM	–	–
O=C1Nc2ccc(Br)cc2C1c1nc(NCc2ccc(Cl)nc2)nc2c1CCC2 (stereo not shown) [Example 338, 5-Bromo-3-{2-[(6-chloro-pyridin-3-ylmethyl)-amino]-6,7-dihydro-5H-cyclopentapyrimidin-4-yl}-1,3-dihydro-indol-2-one]	–	> 10 µM	> 3 µM	–
N#Cc1ccc2c(c1)C(c1nc(Nc3cccnc3)nc3nn(C4CCCC4)cc13)C(=O)N2 (stereo not shown) [Example 169, 3-[2-Cyclopentyl-6-(pyridin-3-ylamino)-2H-pyrazolo [3,4-d]pyrimidin-4-yl]-2-oxo-2,3-dihydro-1H-indole-5-carbonitrile]	> 10 µM	< 0.3 µM	–	–
N#Cc1ccc2c(c1)C(c1nc(N3CCN(CCN4CCCC4)CC3)nc3nn(C4CCCC4)cc13)C(=O)N2 (stereo not shown) [Example 127, 3-{2-cyclopentyl-6-[4-(2-pyrrolidin-1-yl-ethyl)-piperazin-1-yl]-2H-pyrazolo[3,4-d]pyrimidin-4-yl}-2-oxo-2,3-dihydro-1H-indole-5-carbonitrile]	> 10 µM	< 0.3 µM	–	–
N#Cc1ccc2c(c1)C(c1nc(NCCCN3CCCCC3)nc3nn(C4CCCC4)cc13)C(=O)N2 (stereo not shown) [Example 170, 3[2-Cyclopentyl-6-(3-piperidin-1-yl-propylamino)-2H-pyrazolo[3,4-d]pyrimidin-4-yl]-2-oxo-2,3-dihydro-1H-indole-5-carbonitrile]	0.3 to 3 µM	< 0.3 µM	–	–

Other lines, results leading:

IC50 ([1]; class symbols)	IC50 ([2]; class symbols)	IC50 ([1]; numeric bounds)	IC50 ([2]; numeric bounds)	Compound
> 10 µM	0.3 to 3 µM	–	–	CN1CCN(c2nc3c(c(C4C(=O)Nc5ccc(C#N)cc54)n2)CCC3)CC1 (stereo not shown) [Example 353, 3-[2-(4-Methyl-piperazin-1-yl)-6,7-dihydro-5H-cyclopentapyrimidin-4-yl]-2-oxo-2,3-dihydro-1H-indole-5-carbonitrile]
< 0.3 µM	< 0.3 µM	–	–	CCCn1cc2c(C3C(=O)Nc4ccc(Br)cc43)nc(NC[C@@H]3CCCO3)nc2n1 (stereo partly drawn) [Example 367, 5-Bromo-3-(2-propyl-6-{[(S)-1-(tetrahydro-furan-2-yl)methyl]-amino}-2H-pyrazolo [3,4-d]pyrimidin-4-yl)-1,3-dihydro-indol-2-one]
< 0.3 µM	< 0.3 µM	–	–	CCCn1cc2c(C3C(=O)Nc4ccc(Br)cc43)nc(NC[C@H]3CCCO3)nc2n1 (stereo partly drawn) [Example 366, 5-Bromo-3-(2-propyl-6-{[(R)-1-(tetrahydro-furan-2-yl)methyl]-amino}-2H-pyrazolo[3,4-d]pyrimidin-4-yl)-1,3-dihydro-indol-2-one]
0.3 to 3 µM	< 0.3 µM	–	–	CCCn1cc2c(C3C(=O)Nc4ccc(Br)cc43)nc(NCCNC)nc2n1 (stereo not shown) [Example 365, 5-Bromo-3-[6-(2-methylamino-ethylamino)-2-propyl-2H-pyrazolo [3,4-d]pyrimidin-4-yl]-1,3-dihydro-indol-2-one hydrochloride salt]
> 10 µM	> 10 µM	–	–	N#Cc1ccc2c(c1)C(c1nc(Nc3ccc(F)nc3)nc3c1CCC3)C(=O)N2 (stereo not shown) [Example 351, 3-[2-(6-Fluoro-pyridin-3-ylamino)-6,7-dihydro-5H-cyclopentapyrimidin-4-yl]-2-oxo-2,3-dihydro-1H-indole-5-carbonitrile]
